Patent US6861430B2, “β-carboline derivatives and its pharmaceutical use against depression and anxiety” (Novartis AG, priority 2001, dated 2005)

Columns and labels:
[1] = target: somatostatin sst3 receptors (Homo sapiens, UniProt P32745); experiment: radioligand binding, somatostatin receptor expressing cell cultures; settings: sst3 versus other somatostatin receptors
Description: (§1) In particular the agents of the invention show high affinity to somatostatin receptors. More particularly they are selective antagonists at somatostatin sst3 receptors, previously called SSTR-3 receptors (see Hoyer et al., TiPS, 1995, 16; 86-88), as determined in radioligand binding and second messenger studies [see for example K. Kaupmann et al., FEBS Letts. 1993, 331:53-59.

human sst3 receptor = human sst3 receptor (Homo sapiens, UniProt P32745); experiment: radioligand binding, human sst3 receptor; settings: read-out: pKd, human receptor (converted)
Chain of human sst3 receptor (P32745 whole entry): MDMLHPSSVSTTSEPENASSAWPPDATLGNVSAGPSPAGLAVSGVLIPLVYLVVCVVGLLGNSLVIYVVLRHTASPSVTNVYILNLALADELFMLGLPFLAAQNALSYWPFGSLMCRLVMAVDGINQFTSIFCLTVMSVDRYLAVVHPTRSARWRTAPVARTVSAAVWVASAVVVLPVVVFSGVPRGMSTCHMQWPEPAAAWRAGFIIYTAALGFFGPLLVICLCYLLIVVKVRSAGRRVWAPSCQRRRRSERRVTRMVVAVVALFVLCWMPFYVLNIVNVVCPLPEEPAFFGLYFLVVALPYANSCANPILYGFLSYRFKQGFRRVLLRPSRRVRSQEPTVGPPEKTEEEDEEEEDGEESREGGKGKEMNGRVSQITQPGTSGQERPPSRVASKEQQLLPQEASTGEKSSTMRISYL
Description: as §1
(§2) The preferred agent of the invention for the above-mentioned indications is the (R)-1,1-bis-ethoxymethyl-3-(4-phenyl-1H-imidazol-2-yl)-2,3,4,9-tetrahydro-1H-β-carboline, in free base or acid addition salt form. […] In the forced swim test (Porsolt), the immobility time is shortened by 30-45% on subchronic administration of 12.5-25 mg/kg p.o.

mouse sst3 receptor = mouse sst3 receptor (Mus musculus, UniProt P30935); experiment: radioligand binding, mouse sst3 receptor; settings: read-out: pKd, mouse receptor (converted)
Chain of mouse sst3 receptor (P30935 whole entry): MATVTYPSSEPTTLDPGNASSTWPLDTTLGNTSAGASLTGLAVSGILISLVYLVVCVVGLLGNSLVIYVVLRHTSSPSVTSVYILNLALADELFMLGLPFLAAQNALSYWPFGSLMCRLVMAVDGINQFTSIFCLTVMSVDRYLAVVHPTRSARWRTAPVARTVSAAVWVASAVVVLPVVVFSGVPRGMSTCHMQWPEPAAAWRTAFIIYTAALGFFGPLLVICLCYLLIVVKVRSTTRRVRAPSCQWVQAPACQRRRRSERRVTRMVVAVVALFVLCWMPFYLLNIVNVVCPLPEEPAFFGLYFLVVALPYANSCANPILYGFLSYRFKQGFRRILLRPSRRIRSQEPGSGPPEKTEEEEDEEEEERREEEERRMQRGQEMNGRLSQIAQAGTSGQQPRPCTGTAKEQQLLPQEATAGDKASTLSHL
Description: as §1, §2

rats = experiment: social exploration test / social contact assay; assay type: in vivo; settings: rat
Description: In the social exploration test at doses of about 0.01 to 10 mg/kg p.o., the agents of the invention increase social contact time of rats similarly to classical anxiolytics such as benzodiazepines e.g. chlordiazepoxide or NK1 antagonists (Vassout A, Veenstra S, Hauser K, Ofner S, Brugger F, Schilling W, Gentsch C, Regulatory Peptides. 2000; 96, 7-16).
as §2

passive avoidance test = assay type: in vivo; settings: 0.1, 1 or 10 mg/kg p.o.
mice = experiment: social recognition test; assay type: in vivo; settings: doses between 0.03 and 3 mg/kg p.o.
Description: The agents of the invention at 0.03-3 mg/kg p.o. enhance leaming/mlmory in mice as measured in the social recognition test similar to oxiracetam or GABAB blockers (Thor D. H. and Holloway W. R. J. Comp. Physiol. Psychol. 1982; 96: 1000-1006. Mondadori C. et al., Behavioural Brain Research 1996, 77: 227-229).
as §2

rat = experiment: forced swim test (Porsolt), rat; assay type: in vivo; settings: subchronic administration of 12.5-25 mg/kg p.o.
Description: The agents of the invention show antidepressant-like effects in the rat, similar to desipramine or fluoxetine when given subchronically (10-30 mg/kg, p.o.) in the forced swim test. (Porsolt, R. D. et al. Nature. 1977: 266, 730-732) and also produce antidepressant-like effects in the mouse, similar to fluoxetine (Porsolt, R. D. et al. Nature 1977: 266, 730-732). Finally, these agents, when given once per day for 14 days, (0.3-30 mg/kg p.o.), reverse both the characteristic hyper-reactivity of bulbectomised rats when first placed in a novel and stressful environment and the total activity, similar to imipramine and desipramine. (Song C and Leonard BE. Hum. Psychopharmacol 1994; 9: 135-146).
as §2

Chain of somatostatin sst3 receptors (P32745 whole entry): as the sequence (P32745 whole entry) above

SMILES | melting point | selectivity over other somatostatin receptors [1] | Kd (human sst3 receptor) | Kd (mouse sst3 receptor) | dose of maximal amplitude, social contact assay (rats) | duration of social contacts of the intruder towards the resident (rats; 0.01-10 mg/kg p.o.) | impairment of memory formation in passive avoidance test (passive avoidance test) | social recognition of a familiar partner (mice) | shortening of immobility time (rat)
CCCCC1(CCCC)N[C@@H](c2nc(-c3ccncc3)c[nH]2)Cc2c1[nH]c1ccccc21 [Example 1, (R)-1,1-Dibutyl-3-(4-pyridin-4-yl-1H-imidazol-2-yl)-2,3,4,9-tetrahydro-1H-β-carboline] | 200 to 205 °C |  |  |  |  |  |  |  | 
CCOCC1(COCC)N[C@@H](c2nc(-c3ccccc3)c[nH]2)Cc2c1[nH]c1ccccc21 [Example 10, (R)-1,1-bis-ethoxymethyl-3-(4-phenyl-1H-imidazol-2-yl)-2,3,4,9-tetrahydro-1H-β-carboline] |  | more than 400 fold | 2.04 nM | 5.01 nM | 0.3-3 mg/kg p.o. | increases dose dependently the duration of social contacts | no impairment of memory formation | significant increase of social recognition | 30-45%
